The source made the active and inactive calls. The rule behind the calls is not given here.

One data set deals with Cholinesterase (Equus caballus, UniProt P81908). Briefly: Inhibition of equine serum BChE using acetylthiocholine iodide as substrate preincubated with compound for 30 mins followed by substrate addition and measured after 30 mins by DTNB reagent based Ellman's method.
The target of data set [1] is T1, Acetylcholinesterase (Homo sapiens, UniProt P22303). Briefly: Inhibition of human recombinant AChE expressed in HEK293 cells using acetylthiocholine iodide as substrate preincubated with compound for 30 mins followed by substrate addition and measured after 30 mins by DTNB reagent based Ellman's method.
T1 sequence (P22303 whole entry): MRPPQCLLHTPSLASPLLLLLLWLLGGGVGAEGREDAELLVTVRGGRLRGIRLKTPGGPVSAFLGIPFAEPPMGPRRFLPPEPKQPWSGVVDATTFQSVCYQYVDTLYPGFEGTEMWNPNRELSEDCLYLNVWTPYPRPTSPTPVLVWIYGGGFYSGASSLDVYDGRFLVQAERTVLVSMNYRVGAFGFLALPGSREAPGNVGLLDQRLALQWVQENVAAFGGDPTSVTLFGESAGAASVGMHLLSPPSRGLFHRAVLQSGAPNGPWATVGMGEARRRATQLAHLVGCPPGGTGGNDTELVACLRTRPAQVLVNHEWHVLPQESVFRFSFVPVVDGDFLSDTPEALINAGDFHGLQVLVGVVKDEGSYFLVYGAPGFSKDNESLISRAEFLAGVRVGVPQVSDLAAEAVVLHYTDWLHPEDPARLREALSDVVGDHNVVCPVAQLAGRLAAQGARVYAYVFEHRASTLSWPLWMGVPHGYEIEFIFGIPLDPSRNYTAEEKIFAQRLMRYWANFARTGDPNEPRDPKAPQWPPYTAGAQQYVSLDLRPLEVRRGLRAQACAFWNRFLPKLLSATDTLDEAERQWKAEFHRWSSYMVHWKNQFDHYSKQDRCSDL
Data set [2] in a line: Antioxidant activity assessed as DPPH radical scavenging activity at 200 uM incubated for 30 mins relative to control. Format: functional. Background: Loss of DPPH colour is used to gauge radical scavenging.
Data set [3] relates to Drosophila melanogaster. Briefly: Anti-alzheimer activity in ey-GAL4 driven UAS-amyloid beta (1 to 42) induced Drosophila melanogaster Oregon R-positive assessed as mild eye phenotype at 100 uM by Stereo zoom microscopic imaging analysis relative to control. In kind it is functional.
Data set [4] is described as follows: Toxicity in Drosophila melanogaster Oregon R-positive assessed as reduction in eclosed flies at 200 uM measured for 15 days relative to control. Also on record: scale not given: the % may be the effect or the level left. The note with it: 360 h, time 15 day.
The subject of data set [5] is Mus musculus. Briefly: Antialzheimer activity in scopolamine-induced Swiss albino mouse model assessed as improvement in memory retention by measuring time spent in platform quadrant at 3 mg/kg, po preincubated with compound for 30 mins followed by scopolamine induction and measured after 5 days by Morris water maze test. In kind it is functional, organism-based. Conditions: time 7230.0 min.

Data set [6] is described as follows: Toxicity in Drosophila melanogaster Oregon R-positive assessed as reduction in eclosed flies at 400 uM measured for 15 days relative to control. Also on record: scale not given: the % may be the effect or the level left. The note with it: 360 h, time 15 day.
Data set [7] concerns Mus musculus. Put plainly: Antialzheimer activity in scopolamine-induced Swiss albino mouse model assessed as reduction in BChE level at 3 mg/kg, po preincubated with compound for 30 mins followed by scopolamine induction and measured after 30 mins. Format: functional, organism-based. Conditions: time 1.0 hrs.
For data set [8], the target named is T1, Acetylcholinesterase. Put plainly: Displacement of propidium iodide from human AChE PAS assessed as reduction in fluorescence intensity at 5 uM incubated for 6 hrs by fluorescence based analysis relative to control. Set-up: scale not given: the % may be the effect or the level left.
Data set [9] deals with T1, Acetylcholinesterase. Put plainly: Displacement of propidium iodide from human AChE PAS assessed as reduction in fluorescence intensity at 0.1 uM incubated for 6 hrs by fluorescence based analysis relative to control. Set-up: scale not given: the % may be the effect or the level left.
Data set [10] has as its system Mus musculus. Put plainly: Antioxidant activity against scopolamine-induced Swiss albino mouse model assessed as increase in SOD level at 3 mg/kg, po by absorbance based analysis. In kind it is functional, organism-based.
Data set [11] has as its system Drosophila melanogaster. Briefly: Anti-alzheimer activity in ey-GAL4 driven UAS-amyloid beta (1 to 42) induced Drosophila melanogaster Oregon R-positive assessed as rescued eye phenotype at 100 uM by Stereo zoom microscopic imaging analysis relative to control. In kind it is functional.
A short description of data set [12]: Toxicity in Drosophila melanogaster Oregon R-positive assessed as reduction in eclosed flies at 100 uM measured for 15 days relative to control. The note with it: 360 h, time 15 day. Also on record: scale not given: the % may be the effect or the level left.
For data set [13], the system named is Drosophila melanogaster. Put plainly: Anti-alzheimer activity in ey-GAL4 driven UAS-amyloid beta (1 to 42) induced Drosophila melanogaster Oregon R-positive assessed as severe eye phenotype at 50 uM by Stereo zoom microscopic imaging analysis relative to control. In kind it is functional.
The subject of data set [14] is Drosophila melanogaster. Briefly: Anti-alzheimer activity in ey-GAL4 driven UAS-amyloid beta (1 to 42) induced Drosophila melanogaster Oregon R-positive assessed as mild eye phenotype at 50 uM by Stereo zoom microscopic imaging analysis relative to control. In kind it is functional.
The test system of data set [15] is Drosophila melanogaster. Put plainly: Anti-alzheimer activity in ey-GAL4 driven UAS-amyloid beta (1 to 42) induced Drosophila melanogaster Oregon R-positive assessed as reduction in superoxide level at 100 uM by fluorescence based analysis. Format: functional, organism-based.
Data set [16] has as its target T1, Acetylcholinesterase. Put plainly: Displacement of propidium iodide from human AChE PAS assessed as reduction in fluorescence intensity at 0.01 uM incubated for 6 hrs by fluorescence based analysis relative to control. Set-up: scale not given: the % may be the effect or the level left.
The test system of data set [17] is Drosophila melanogaster. Briefly: Inhibition of oxidative stress in y-GAL4 driven UAS-amyloid beta (1 to 42) induced Drosophila melanogaster Oregon R-positive assessed as reduction in ROS level at 50 uM incubated for 30 mins by H2DCFDA staining based analysis. In kind it is functional, organism-based.
Data set [18] addresses T1, Acetylcholinesterase. Briefly: Displacement of propidium iodide from human AChE PAS assessed as reduction in fluorescence intensity at 1 uM incubated for 6 hrs by fluorescence based analysis relative to control. Set-up: scale not given: the % may be the effect or the level left.
Data set [19] in a line: Toxicity in Drosophila melanogaster Oregon R-positive assessed as reduction in eclosed flies at 50 uM measured for 15 days relative to control. Also on record: scale not given: the % may be the effect or the level left. Conditions: 360 h, time 15 day.
A short description of data set [20]: Antioxidant activity assessed as DPPH radical scavenging activity incubated for 30 mins. In kind it is functional.

Sequence of Cholinesterase (P81908 whole entry): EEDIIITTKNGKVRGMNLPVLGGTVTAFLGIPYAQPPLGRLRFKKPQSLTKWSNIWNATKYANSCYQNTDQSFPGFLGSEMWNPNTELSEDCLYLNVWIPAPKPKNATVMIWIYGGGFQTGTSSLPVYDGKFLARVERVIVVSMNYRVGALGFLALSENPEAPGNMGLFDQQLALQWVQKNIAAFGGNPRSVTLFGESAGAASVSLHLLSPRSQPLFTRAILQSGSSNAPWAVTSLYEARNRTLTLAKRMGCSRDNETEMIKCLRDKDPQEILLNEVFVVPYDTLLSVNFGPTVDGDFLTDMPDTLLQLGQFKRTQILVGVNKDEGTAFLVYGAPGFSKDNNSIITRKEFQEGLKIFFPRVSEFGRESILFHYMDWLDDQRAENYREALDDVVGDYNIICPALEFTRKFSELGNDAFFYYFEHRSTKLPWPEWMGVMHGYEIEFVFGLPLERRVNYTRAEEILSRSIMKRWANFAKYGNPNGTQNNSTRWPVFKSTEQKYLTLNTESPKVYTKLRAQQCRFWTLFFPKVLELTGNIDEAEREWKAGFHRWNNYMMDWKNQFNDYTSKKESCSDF

Usually IC50 stands for the point on the concentration scale where inhibition reaches its midpoint. Consider `C[C@@H](c1cccc(OC(=O)NCCc2c[nH]c3ccccc23)c1)N(C)C`, for which the values for the IC50 at Cholinesterase and at Acetylcholinesterase [1] were 11.1 nM and 22.2 nM, respectively.

For the molecule `CC(c1cccc(OC(=O)NCCc2c[nH]c3ccccc23)c1)N(C)C` (centres undefined), the figures for the IC50 on Cholinesterase and on Acetylcholinesterase [1] were 14.8 nM and 24.5 nM, respectively.

For the molecule `COc1ccc2[nH]cc(CCNC(=O)Oc3cccc(C(C)N(C)C)c3)c2c1` (centres undefined), the values for the IC50 on Cholinesterase and on Acetylcholinesterase [1] were 13.6 nM and 48.3 nM, respectively.

`Cc1ccc2[nH]cc(CCNC(=O)Oc3cccc([C@H](C)N(C)C)c3)c2c1`: the IC50 was determined as 26.5 nM on Cholinesterase and 54.7 nM on Acetylcholinesterase [1].

Take `Cc1ccc2[nH]cc(CCNC(=O)Oc3cccc(C(C)N(C)C)c3)c2c1` (centres undefined): the IC50 on Cholinesterase worked out at 38.7 nM; at Acetylcholinesterase [1] it was 73.3 nM.

Regarding `COc1ccc2[nH]cc(CCNC(=O)Oc3cccc([C@H](C)N(C)C)c3)c2c1`, the IC50 at Cholinesterase came out at 3.15 nM; on Acetylcholinesterase [1], 21.4 nM. Further, the Activity in [2] is 19.8%.

For `CC(c1cccc(OC(=O)NCCc2c[nH]c3ccc(O)cc23)c1)N(C)C` (centres undefined), the results for the IC50 at Cholinesterase and at Acetylcholinesterase [1] were 55.8 nM and 2.31 nM, respectively.

Turning to `C[C@H](c1cccc(OC(=O)NCCc2c[nH]c3ccc(Cl)cc23)c1)N(C)C`, the IC50 on Cholinesterase came out at 7.66 nM; on Acetylcholinesterase [1], 8.38 nM.

As to `CCN(C)C(=O)Oc1cccc([C@H](C)N(C)C)c1` [RIVASTIGMINE], the Activity in the data set with Drosophila melanogaster [3] is 40%; in data set [4], 73%; in data set [6] it was 29%; at Acetylcholinesterase [8] it was 8.74%; on Acetylcholinesterase [9], 2.96%; in the data set on Drosophila melanogaster [11], 33%. In addition, the Activity in data set [12] was found to be 95%; in the data set on Drosophila melanogaster [13] it was 23%; with Drosophila melanogaster [14], 43%; on Acetylcholinesterase [16], 1.61%; at Acetylcholinesterase [18], 6.3%; in [19], 108%. The Activity in [2] stood at 3.71%. In addition, the outcome in the data set with Mus musculus [5], in the data set on Mus musculus [7], in the data set with Mus musculus [10], in the data set on Drosophila melanogaster [15] and in the data set with Drosophila melanogaster [17] was Active.

Take `CC(c1cccc(OC(=O)NCCc2c[nH]c3ccc(Cl)cc23)c1)N(C)C` (centres undefined): the IC50 was determined as 2.14 nM on Cholinesterase and 13.8 nM on Acetylcholinesterase [1]. Moreover, the Activity in data set [2] is 33.3%.

On to `O=C1O[C@H]([C@@H](O)CO)C(O)=C1O` [ASCORBIC ACID], for which, in data set [20], the IC50 worked out at 3510 nM.

(Values after ChEMBL document CHEMBL6074689 (Eur J Med Chem, 2025).)
